Data: patent US10179173B2, “Semi-solid delivery systems” (Regents of the University of Minnesota, priority 2012, dated 2019)

Legend:
[1] = In vitro drug release from drug loaded semi-solid polymer in buffered saline; type: physicochemical
Experimental: A certain amount of drugs (Ibuprofen or BSA) were grinded into fine particles and then mixed with certain amount of polymer in a glass vial. […] At certain time points, the buffer was removed for analysis and replaced with fresh buffer. The amount of Ibu released in the medium was measured by UV spectroscopy (Beckman Coulter, DU 640B spectrophotometer) for absorbance at 263 nm.

[2] = cited from earlier work
[3] = Solubility of drugs in water and in the semi-solid polymer; type: physicochemical; conditions: PCL-OE-1
[4] = mouse, in vivo, sc
Experimental: In vivo biocompatibility of the polymer was evaluated by subcutaneous injection into mice through 18-gauge needles; 50 mg of polymer was injected for each mouse. At certain time point, mouse was sacrificed and the tissue of the injection site harvested, sectioned, and stained with H&E.

duration of sustained release of Ibu from the semi-solid polymer ([1]; 5 wt % in PCL-OE-1, pH 7.4 and pH 5.0)	effect of pH on sustained release of Ibu ([1]; pH 7.4 versus pH 5.0)	solubility in the semi-solid polymer [3]	Compound	solubility in water [2]	tissue damage or inflammatory response at injection site (H&E) [4]
at least three	not affected by pH	excellent solubility	CC(C)Cc1ccc(C(C)C(=O)O)cc1 (centres unmarked) [Ibu, Ibuprofen]	poor solubility in water	
			poly(ortho ester caprolactone) [PCL-OE-1]		No visible tissue damage or inflammatory response
